Data on twelve molecules can be found in patent US20260374766A1, “METHODS FOR TREATING CANCER” (Antares Therapeutics, Inc., priority 2022, published 2026).

A word on the IC50: it is the concentration that inhibits the measured activity by half. Broadly, the Emax is the greatest response seen or fitted, relative to the assay's reference. In general, AC50 refers to the concentration at which the activity in the assay is half-maximal. As a reminder, the Kd is the concentration at which binding is half-saturated.

The test system of one test is H1299 p53 R273H. In words: Cell Proliferation Assay (CellTiter-Glo, CTG), H1299 p53 R273H (NClH1299-inducible p53 R273H). The note with it: Homo sapiens, NCI-H1299, 120 h, CellTiter-Glo, H1299 p53 R273H, 5 days. Type of test: cell-based. The method, boiled down: (§1)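 Tet-One inducible p53 Y220C or R273H constructs were stably introduced into NCI-H1299 by lentiviral transduction; NUGC3 was used as is. Cells (250-500 per well) were exposed to compound for 5 days, then CellTiter-Glo was added for 10 min at room temperature and IC50 was calculated from luminescence.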

Another test addresses p53 Y220C (Homo sapiens, UniProt P04637, Y220C). In words: Luciferase Reporter Assay (Luc), p53 response element, NClH1299 cells with inducible p53 Y220C. The test is classed as cell-based. As to conditions: luciferase reporter, NClH1299 inducible p53 Y220C, 6 hour; for Emax: 10 uM tool compound as positive control; for AC50: read-out: Luc P53 Y220C AC50. The method, boiled down:
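Steps: seed 5,000 cells/well; induce mutant p53 with 0.5 ug/mL doxycycline for 24 h; treat with compound 6 h; add equal volume One-Glo, shake 5 min at room temperature; measure luciferase immediately.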

Test [1] deals with T1, p53 Y220C mutant protein (amino acid residues 94-293) (Homo sapiens, UniProt P04637, Y220C).
T1 construct: p53 Y220C mutant protein (amino acid residues 94-293)
In words: Surface Plasmon Resonance (SPR) assay, Kd_kinetic. The test is classed as binding. The note with it: SPR, kinetic KD, p53 Y220C; read-out: SPR P53 Y220C KD kinetic. The method, boiled down: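 Kinetic dissociation constants derived by 1:1 model fit of SPR data acquired at 16 or 20 °C, pH 7.5 Tris/NaCl running buffer with 1% DMSO.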

In a further test the test system is H1299 p53 Y220C. Nature of the test: Cell Proliferation Assay (CellTiter-Glo, CTG), H1299 p53 Y220C (NClH1299-inducible p53 Y220C). The test is classed as cell-based. As to conditions: Homo sapiens, NCI-H1299, 120 h, CellTiter-Glo, H1299 p53 Y220C, 5 days. The method in brief:
as §1
(In general: ATP-based viability assays read luminescence as a measure of living cells.)

The next test relates to NUGC3 p53 Y220C. In words: Cell Proliferation Assay (CellTiter-Glo, CTG), NUGC3 p53 Y220C. Type of test: cell-based. The note with it: Homo sapiens, NUGC-3, 120 h, CellTiter-Glo, NUGC3 p53 Y220C, 5 days. The method in brief: as §1
Test [2] deals with T1, p53 Y220C mutant protein (amino acid residues 94-293). Nature of the test: Thermal Shift Assay (TSA), dTM. The test is classed as binding. As to conditions: thermal shift; for ΔTm at 100 µM: 100 uM compound, read-out: TSA P53 Y220C dTM (100 uM); for ΔTm at 10 µM: 10 uM compound, read-out: TSA P53 Y220C dTM (10 uM). The method, boiled down:
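5 μM protein + 10 μM or 100 μM cpd, 3 h, 20 °C; 20 mM HEPES pH7.4, 100 mM NaCl, 0.01% Pluronic F-127, 1% DMSO, Sypro Orange 400-fold dil. Ramp 30→50 °C, 0.03 °C/s. TM by Boltzmann two-state fit.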

For `CNC(=O)c1ccc(NCC#Cc2nc3c(N[C@@H]4CCN(C)C[C@@H]4F)cccn3c2NC)c(OC)c1` [Example 25, 4-{[3-(8-{[(3S,4R)-3-fluoro-1-methylpiperidin-4-yl]amino}-3-(methylamino)imidazo[1,2-a]pyridin-2-yl)prop-2-yn-1-yl]amino}-3-methoxy-N-methylbenzamide], the IC50 is no less than 10000 nM in the test with H1299 p53 R273H, greater than 3000 nM in the test with H1299 p53 Y220C and greater than 3000 nM in the test with NUGC3 p53 Y220C. This molecule yielded an Emax at p53 Y220C of less than 70%. The AC50 on p53 Y220C is greater than 3000 nM. Further, in test [1], the Kd lay in the range of 100 to 1000 nM. Also, in test [2], the ΔTm at 100 µM is 5 to 10 °C.
Regarding `CNC(=O)c1ccc(NCC#Cc2nc3c(N[C@@H]4CCN(C)C[C@@H]4F)cccn3c2C2CC2)c(OC)c1` [Example 29, 4-{[3-(3-cyclopropyl-8-{[(3S,4R)-3-fluoro-1-methylpiperidin-4-yl]amino}imidazo[1,2-a]pyridin-2-yl)prop-2-yn-1-yl]amino}-3-methoxy-N-methylbenzamide], the IC50 was no less than 10000 nM in the test on H1299 p53 R273H, greater than 3000 nM with H1299 p53 Y220C and greater than 3000 nM with NUGC3 p53 Y220C. Also, the Emax at p53 Y220C is less than 70%. The AC50 on p53 Y220C was greater than 3000 nM. In addition, the Kd in test [1] was 100 to 1000 nM. For the same molecule, the ΔTm at 100 µM in test [2] lay in the range of 5 to 10 °C.
Turning to `COc1cc(S(C)(=O)=O)ccc1NCC#Cc1nc2c(NC3CCN(C)CC3)cc(N)cn2c1CC(F)(F)F` [Example 32, 2-{3-[(4-methanesulfonyl-2-methoxyphenyl)amino]prop-1-yn-1-yl}-N8-(1-methylpiperidin-4-yl)-3-(2,2,2-trifluoroethyl) imidazo[1,2-a]pyridine-6,8-diamine], the IC50 with H1299 p53 R273H is no less than 10000 nM; with H1299 p53 Y220C, greater than 3000 nM; in the test on NUGC3 p53 Y220C it was greater than 3000 nM. At p53 Y220C, the Emax was less than 70%. In addition, the AC50 at p53 Y220C is greater than 3000 nM. For the same molecule, the Kd in test [1] was less than 10 nM. The ΔTm at 10 µM in test [2] was in the range of 1 to 5 °C. Further, the ΔTm at 100 µM in test [2] was in the range of 1 to 5 °C.
As to `CNc1cc(NC2CCN(C)CC2)c2nc(C#CCNc3ccc(S(C)(=O)=O)cc3OC)c(CC(F)(F)F)n2c1` [Example 33, 2-{3-[(4-methanesulfonyl-2-methoxyphenyl)amino]prop-1-yn-1-yl}-N6-methyl-N8-(1-methylpiperidin-4-yl)-3-(2,2,2-trifluoroethyl) imidazo[1,2-a]pyridine-6,8-diamine], the results for the IC50 with H1299 p53 R273H, in the test on H1299 p53 Y220C and in the test with NUGC3 p53 Y220C were no less than 10000 nM, greater than 3000 nM and greater than 3000 nM, respectively. Moreover, the Emax on p53 Y220C was less than 70%. Further, the AC50 on p53 Y220C is greater than 3000 nM. Also, the Kd in test [1] was 10 to 100 nM. Also, the ΔTm at 100 µM in test [2] lay within 1 to 5 °C.
In the case of `CNC(=O)c1ccc(NCC#Cc2nc3c(N[C@@H]4CCN(C)C[C@@H]4F)cccn3c2CC(F)(F)F)cc1` [Example 35, 4-{[3-(8-{[(3S,4R)-3-fluoro-1-methylpiperidin-4-yl]amino}-3-(2,2,2-trifluoroethyl)imidazo[1,2-a]pyridin-2-yl)prop-2-yn-1-yl]amino}-N-methylbenzamide], the IC50 in the test with H1299 p53 R273H was no less than 10000 nM; in the test with H1299 p53 Y220C, 1500 to 3000 nM; in the test with NUGC3 p53 Y220C, 1500 to 3000 nM. This molecule returned an Emax at p53 Y220C of 70 to 80%. Besides, the AC50 at p53 Y220C is greater than 3000 nM. Further, the Kd in test [1] was less than 10 nM. Also, the ΔTm at 100 µM in test [2] was in the range of 5 to 10 °C.
`CNC(=O)c1ccc(NCC#Cc2nc3c(N[C@@H]4CCN(C)C[C@@H]4F)cccn3c2CC(F)(F)F)c(OC)c1` [Example 36, 4-{[3-(8-{[(3S,4R)-3-fluoro-1-methylpiperidin-4-yl]amino}-3-(2,2,2-trifluoroethyl)imidazo[1,2-a]pyridin-2-yl)prop-2-yn-1-yl]amino}3-methoxy-N-methylbenzamide] had an IC50 with H1299 p53 R273H of no less than 10000 nM. Besides, on p53 Y220C, the Emax was 70 to 80% and the AC50 is 750 to 1500 nM. Besides, the Kd in test [1] was less than 10 nM. The IC50 in the test on H1299 p53 Y220C was 750 to 1500 nM. The same molecule displayed an IC50 in the test with NUGC3 p53 Y220C of 750 to 1500 nM. Further, in test [2], the ΔTm at 10 µM was in the range of 5 to 10 °C and the ΔTm at 100 µM was no less than 10 °C.
For the molecule `CNC(=O)c1ccc(NCC#Cc2nc3c(NC4CCN(C)CC4)cc(NC(=O)OC(C)(C)C)cn3c2CC(F)(F)F)c(OC)c1` [Example 39, tert-butyl N-[2-(3-{[2-methoxy-4-(methylcarbamoyl)phenyl]amino}prop-1-yn-1-yl)-8-[(1-methylpiperidin-4-yl)amino]-3-(2,2,2-trifluoroethyl)imidazo[1,2-a]pyridin-6-yl]carbamate], the IC50 was 5000 to 8000 nM in the test on H1299 p53 R273H, greater than 3000 nM in the test on H1299 p53 Y220C and 1500 to 3000 nM in the test with NUGC3 p53 Y220C. Further, the Emax on p53 Y220C was less than 70%. For the same molecule, at p53 Y220C, the AC50 is greater than 3000 nM. The Kd in test [1] was greater than 1000 nM. Besides, the ΔTm at 100 µM in test [2] lay within 1 to 5 °C.
For `CNC(=O)c1ccc(NCC#Cc2nc3c(NC4CCN(C)CC4)cc(N)cn3c2CC(F)(F)F)c(OC)c1` [Example 40, 4-[(3-{6-amino-8-[(1-methylpiperidin-4-yl)amino]-3-(2,2,2-trifluoroethyl)imidazo[1,2-a]pyridin-2-yl}prop-2-yn-1-yl)amino]-3-methoxy-N-methylbenzamide], the IC50 was no less than 10000 nM in the test with H1299 p53 R273H, greater than 3000 nM in the test with H1299 p53 Y220C and greater than 3000 nM in the test with NUGC3 p53 Y220C. In addition, the Emax at p53 Y220C was less than 70%. The AC50 on p53 Y220C is greater than 3000 nM. Also, the Kd in test [1] lay within 10 to 100 nM. The ΔTm at 100 µM in test [2] fell in the range of 5 to 10 °C.
Take `CNC(=O)Nc1cc(NC2CCN(C)CC2)c2nc(C#CCNc3ccc(C(=O)NC)cc3OC)c(CC(F)(F)F)n2c1` [Example 44, 3-methoxy-N-methyl-4-[(3-{6-[(methylcarbamoyl)amino]-8-[(1-methylpiperidin-4-yl)amino]-3-(2,2,2-trifluoroethyl)imidazo[1,2-a]pyridin-2-yl}prop-2-yn-1-yl)amino]benzamide]: the IC50 with H1299 p53 R273H was no less than 10000 nM; in the test on H1299 p53 Y220C it was greater than 3000 nM; with NUGC3 p53 Y220C, greater than 3000 nM. The Emax at p53 Y220C was less than 70%. The AC50 on p53 Y220C is greater than 3000 nM. In addition, the Kd in test [1] is 100 to 1000 nM. The ΔTm at 100 µM in test [2] was 1 to 5 °C.
On to `COc1cc(C(=O)N(C)C)ccc1NCC#Cc1nc2c(N[C@@H]3CCN(C)C[C@@H]3F)cccn2c1CC(F)(F)F` [Example 46, 4-{[3-(8-{[(3S,4R)-3-fluoro-1-methylpiperidin-4-yl]amino}-3-(2,2,2-trifluoroethyl)imidazo[1,2-a]pyridin-2-yl)prop-2-yn-1-yl]amino}-3-methoxy-N,N-dimethylbenzamide], for which the IC50 is no less than 10000 nM in the test on H1299 p53 R273H, 750 to 1500 nM in the test on H1299 p53 Y220C and 1500 to 3000 nM with NUGC3 p53 Y220C. At p53 Y220C, this molecule returned an Emax of 70 to 80%. In addition, on p53 Y220C, the half-maximal activity concentration (AC50) lay within 1500 to 3000 nM. Also, in test [1], the Kd is less than 10 nM. The ΔTm at 100 µM in test [2] is no less than 10 °C.
Regarding `CCNC(=O)c1ccc(NCC#Cc2nc3c(N[C@@H]4CCN(C)C[C@@H]4F)cccn3c2CC(F)(F)F)c(OC)c1` [Example 47, N-ethyl-4-{[3-(8-{[(3S,4R)-3-fluoro-1-methylpiperidin-4-yl]amino}-3-(2,2,2-trifluoroethyl)imidazo[1,2-a]pyridin-2-yl)prop-2-yn-1-yl]amino}-3-methoxybenzamide], the figures for the IC50 in the test on H1299 p53 R273H, in the test with H1299 p53 Y220C and with NUGC3 p53 Y220C were no less than 10000 nM, 1500 to 3000 nM and greater than 3000 nM, respectively. The molecule also showed an Emax at p53 Y220C of 70 to 80%. For the same molecule, the AC50 on p53 Y220C is greater than 3000 nM. In test [1], the Kd lay in the range of 10 to 100 nM. Further, the ΔTm at 100 µM in test [2] is no less than 10 °C.
On to `COc1cc(C(=O)NC(C)C)ccc1NCC#Cc1nc2c(N[C@@H]3CCN(C)C[C@@H]3F)cccn2c1CC(F)(F)F` [Example 48, 4-{[3-(8-{[(3S,4R)-3-fluoro-1-methylpiperidin-4-yl]amino}-3-(2,2,2-trifluoroethyl)imidazo[1,2-a]pyridin-2-yl)prop-2-yn-1-yl]amino}-N-isopropyl-3-methoxybenzamide], for which the IC50 in the test on H1299 p53 R273H is 5000 to 8000 nM; in the test on H1299 p53 Y220C it was less than 750 nM; with NUGC3 p53 Y220C, 750 to 1500 nM. The Emax on p53 Y220C was 70 to 80%. The AC50 on p53 Y220C lay within 750 to 1500 nM. Further, the Kd in test [1] was less than 10 nM. The ΔTm at 100 µM in test [2] is no less than 10 °C.
